# Values quoted from earlier work in patent US7324926B2, “Methods for predicting chemosensitivity or chemoresistance” (Whitehead Institute for Biomedical Research, priority 1999, dated 2008).
# What was measured:
# [1] = system: central nervous system (CNS) cell lines; conditions: CNS cell lines of the NCI-60 panel; sensitive = log10(GI50) at least 0.8 SD below the mean
# [2] = system: ovarian cancer cell lines; conditions: ovarian cancer cell lines of the NCI-60 panel; resistant = log10(GI50) at least 0.8 SD above the mean
smiles,measurement,setting,value
"C=C1[C@@H](C)[C@H]2[C@H](Cc3ccccc3)NC(=O)[C@]23[C@H](OC(C)=O)/C=C/[C@@](C)(O)C(=O)[C@@H](C)C/C=C/[C@H]3[C@@H]1O [cytochalasin D, Cytochalasin D]",cytochalasin D sensitivity class of cell lines (from GI50),[1],sensitive
same,cytochalasin D sensitivity class of cell lines (from GI50),[2],resistant
